According to patent US7414075B2, “Composition for lowering internal lipid content” (Ajinomoto Co., Inc., priority 2003, dated 2008):

Tests used:
Type in all cases: in vivo, rat
male Wistar strain rats [1] = assay: Excretion of cholesterol into feces during three days before dissection; conditions: 0.1 mmol per kg feed, mean ± SD
Description: (§1) Twenty-four nine-week old male Wistar strain rats were used and divided into four groups each comprising six rats, including a control group, a 0.1 mmol/kg capsaicin group, a 0.1 mmol/kg capsinoid group, and a 1.0 mmol/kg capsinoid group. A 20% lard food to which 1% cholesterol was added was administered as a feed to the control group. For the remaining three groups, capsaicin of 0.1 mmol per kg final concentration of the feed, capsinoid of 0.1 mmol per kg final concentration of the feed, and capsinoid of 1.0 mmol per kg final concentration of the feed, respectively, were added to the feed, similar to the control group. The capsinoid was a mixture of 4-hydroxy-3-methoxybenzyl (E)-8-methyl-6-nonenoate and 4-hydroxy-3-methoxybenzyl 8-methylnonanoate in about 2:1 ratio.
The above groups each comprising six rats were subjected to pair feeding for four weeks. Breeding of the experimental animals was conducted in each individual cage and, during the breeding period, body weight was measured once a week and ingested amount of the feed was calculated by deducting the residue from the administered amount. Feces were collected for three days before dissection. After completion of breeding, the rats were sacrificed and dissected. Blood was collected. […] Furthermore, the ratio of the excised organs to the total body weight was calculated. […]

male Wistar strain rats [2] = assay: Influence on serum cholesterol and arteriosclerosis index; conditions: 0.1 mmol per kg feed, four weeks, * p<0.05
Description: as §1
(§2) The above groups each comprising six rats were subjected to pair feeding for four weeks. Breeding of the experimental animals was conducted in each individual cage and, during the breeding period, body weight was measured once a week and ingested amount of the feed was calculated by deducting the residue from the administered amount. Feces were collected for three days before dissection. After completion of breeding, the rats were sacrificed and dissected. Blood was collected. The liver, the fat around the kidney, and the fat around the epididymis were each separately excised and weighed. Furthermore, the ratio of the excised organs to the total body weight was calculated. Unless otherwise mentioned, the results in the following tables are shown in terms of mean value±standard deviation and, statistically, test of significance was conducted at p<0.05 by ANOVA and Duncan's multiple range test. In the tables, * means p<0.05.
Blood was collected from the experimental animals bred as above and total cholesterol (T-chol) and HDL cholesterol (HDL-chol) in the serum was measured. More specifically, total cholesterol and HDL cholesterol were measured according to a method disclosed in “Akiko Tsujihara and Yumiko Tani: Influence of yucca saponin and pure konjak powder on lipid metabolism of rats fed with a high-fat and high-cholesterol feed: Eiyo Shokuryo Gakkaishi, vol. 51, pp. 157-163 (1998)”. The Arteriosclerosis index was calculated by (T-chol-HDL-chol)/(HDL-chol). The results are shown in Table 4, including the amount of triglyceride in the serum (TG).

male Wistar strain rats [3] = assay: Weight of liver, fat around kidney and fat around epididymis, and ratio to total body weight; conditions: 0.1 mmol per kg feed, four weeks
Description: as §1, §2

[4] = Breeding process: body weight and ingested amount of feed in rats on 20% lard food with 1% cholesterol; conditions: 0.1 mmol per kg feed, mean ± SD
Description: as §1, §2

Structure (SMILES): COc1cc(CNC(=O)CCCC/C=C/C(C)C)ccc1O [Capsaicin, capsaicin]
- Cholesterol in Feces, Excreted Amount (male Wistar strain rats [1]): 240 ± 27 mg/3 days
- Cholesterol in Feces, Excreted Rate (male Wistar strain rats [1]): 48.6 ± 3.4%
- Arteriosclerosis Index (male Wistar strain rats [2]; (T-chol-HDL-chol)/(HDL-chol)): 1.2 ± 0.4
- HDL-chol (HDL cholesterol in serum) (male Wistar strain rats [2]; serum, mean ± SD): 34.2 ± 6.5* mg/dl
- T-chol (total cholesterol in serum) (male Wistar strain rats [2]; serum, mean ± SD): 71.2 ± 8.1* mg/dl
- TG (triglyceride in the serum) (male Wistar strain rats [2]; serum, mean ± SD): 25.5 ± 5.3* mg/dl
- Fat (g) around Epididymis (male Wistar strain rats [3]; mean ± SD): 4.6 ± 0.5 g
- Fat (g) around Kidney (male Wistar strain rats [3]; mean ± SD): 3.8 ± 0.6 g
- Liver (male Wistar strain rats [3]; mean ± SD): 14.4 ± 0.9 g
- Fat (%) around Epididymis (male Wistar strain rats [3]; ratio to total body weight): 1.3 ± 0.1%
- Fat (%) around Kidney (male Wistar strain rats [3]; ratio to total body weight): 1.0 ± 0.1%
- Liver (%) (male Wistar strain rats [3]; ratio to total body weight, * p<0.05): 3.9 ± 0.1* %
- Body Weight (g) on Dissected Day ([4]; four weeks): 367 ± 12 g
- Percentage Increase in Body Weight ([4]; four weeks): 133 ± 4%
- Body Weight (g) on Final Day of Breeding ([4]; pair feeding four weeks): 392 ± 11 g
